Data: patent US20210220408A1, “ARYL HYDROCARBON RECEPTOR ANTAGONISTS AND METHODS OF USE” (Magenta Therapeutics Inc., priority 2018, published 2021)

Target: T1, aryl hydrocarbon receptor (AHR) (Homo sapiens, UniProt P35869)
T1 sequence (P35869 11-848): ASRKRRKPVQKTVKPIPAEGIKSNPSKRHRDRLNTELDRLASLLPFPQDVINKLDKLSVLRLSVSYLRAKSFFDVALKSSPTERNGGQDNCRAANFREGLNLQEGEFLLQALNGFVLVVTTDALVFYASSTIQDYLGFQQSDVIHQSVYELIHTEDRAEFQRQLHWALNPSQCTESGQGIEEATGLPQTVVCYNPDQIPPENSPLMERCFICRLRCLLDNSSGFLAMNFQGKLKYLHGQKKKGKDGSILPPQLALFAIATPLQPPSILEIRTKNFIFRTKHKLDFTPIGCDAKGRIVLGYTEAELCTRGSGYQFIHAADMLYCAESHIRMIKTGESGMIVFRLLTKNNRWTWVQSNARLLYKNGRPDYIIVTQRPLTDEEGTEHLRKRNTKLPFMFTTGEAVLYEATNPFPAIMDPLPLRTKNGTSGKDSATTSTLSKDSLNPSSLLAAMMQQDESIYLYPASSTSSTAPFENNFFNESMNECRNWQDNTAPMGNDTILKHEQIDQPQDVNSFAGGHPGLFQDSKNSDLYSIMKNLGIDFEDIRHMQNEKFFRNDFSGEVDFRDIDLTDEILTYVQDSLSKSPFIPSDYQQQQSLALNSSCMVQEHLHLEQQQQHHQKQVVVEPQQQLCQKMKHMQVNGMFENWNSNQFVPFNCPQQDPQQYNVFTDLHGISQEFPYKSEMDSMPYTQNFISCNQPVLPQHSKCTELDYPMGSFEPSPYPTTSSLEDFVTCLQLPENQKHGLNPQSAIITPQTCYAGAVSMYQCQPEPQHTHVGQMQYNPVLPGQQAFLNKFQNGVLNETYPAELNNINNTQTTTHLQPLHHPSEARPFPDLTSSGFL
Test: DRE-Luciferase reporter high-throughput screen (AHR antagonist, VAF347-activated)

Row | SMILES | IC50
1 | c1ccc(-c2cc(-c3cn4cccnc4n3)on2)cc1 [128A] | 1000 to 2000 nM
2 | O=C(NC1CC1)c1cnc(-c2noc3ccccc23)s1 [61A] | 1000 to 2000 nM
3 | O=C(COC(=O)c1cn2ccccc2n1)Nc1ccc(Cl)cc1Cl [117A] | > 2000 nM
4 | Cc1nn(C)cc1-c1nnc(-c2cccc(C(F)(F)F)c2)o1 [138A] | 1000 to 2000 nM
5 | Cc1cccc(CSc2nncc3ccccc23)c1 [95B] | 500 to 1000 nM
6 | O=C(c1csc(-c2ccsc2)n1)N1CCCc2cc(C(F)(F)F)ccc21 [37B] | 200 to 500 nM
7 | COc1cccc(-c2ccc(SCc3cccnc3)nn2)c1 [89A] | > 2000 nM
8 | Cn1c(N)c(-c2csc(-c3cccc(Cl)c3)n2)c(=O)n(C)c1=O [36B] | 1000 to 2000 nM
9 | CC(=O)N(CCn1nc(C)cc1C)c1nc2c(F)cc(F)cc2s1 [compound 93] | 200 to 500 nM
10 | N#Cc1ccc(-c2csc(-c3ccsc3)n2)cc1 [33B] | 200 to 500 nM
11 | Cc1c(COc2ccccc2C#N)noc1-c1ccc(F)cc1 [129A] | 1000 to 2000 nM
12 | Cc1ccc(C(=O)Nc2ccc(Br)c(C)n2)c(Cl)c1 [8B] | 500 to 1000 nM
13 | Cc1ccc(-c2nnc(-c3ccncc3)[nH]2)c([N+](=O)[O-])c1 [109A] | 1000 to 2000 nM
14 | Cc1c(C(=O)Nc2ccccc2)nnn1Cc1ccccc1 [26A] | 1000 to 2000 nM
15 | N#Cc1ccccc1OCc1cc(-c2cccs2)on1 [127A] | 1000 to 2000 nM
16 | CC(C)C(=O)Nc1ccc2c(c1)C(=O)c1c-2nn(C)c1C(C)(C)C [compound 148] | 500 to 1000 nM
17 | N#Cc1ccccc1COc1ccc(-n2cnnn2)cc1 [compound 154] | 500 to 1000 nM
18 | Cc1ccc(-c2nc(CSc3nccn3-c3ccccc3)co2)cc1 [136A] | > 2000 nM
19 | Cc1cccc(-n2ccc(=O)c(C(=O)Nc3ccccc3F)n2)c1 [compound 31] | 200 to 500 nM
20 | Cc1nn(-c2nc3ccccc3[nH]2)c2c1C(=O)CC(c1cccs1)C2 (stereo not shown) [66B] | 1000 to 2000 nM
21 | COc1ccc(Cl)cc1C(=O)Nc1ccc(NC(=O)c2cccc(S(C)(=O)=O)c2)c(Cl)c1 [10B] | 200 to 500 nM
22 | O=C(Nc1ccc2[nH]c(C(F)(F)F)nc2c1)c1cccn(Cc2ccccc2)c1=O [compound 49] | < 200 nM

Row | SMILES | IC50
23 | COc1c(C(=O)Nc2ccc(Cl)cc2)ccc2ccccc12 [20B] | 500 to 1000 nM
24 | COc1cc(OC)c(NC(=O)c2[nH]nc3c2CSc2ccccc2-3)cc1Cl [compound 34] | 200 to 500 nM
25 | CN(Cc1ccn(C)n1)C(=O)c1cc(-c2ccc(Cl)c(Cl)c2)[nH]n1 [104A] | > 2000 nM
26 | CC(C)CCNC(=O)c1[nH]nc2c1COc1ccccc1-2 [183A] | > 2000 nM
27 | Cc1nnc(Oc2ccc(Cl)cc2Cl)c2ccccc12 [159A] | 1000 to 2000 nM
28 | O=c1cc(NCc2cccc(C(F)(F)F)c2)nc2ccc(Cl)cn12 [167A] | > 2000 nM
29 | O=C(Nc1cccnc1N1CCN(c2ncc(C(F)(F)F)cc2Cl)CC1)c1ccc(F)cc1 [81A] | 1000 to 2000 nM
30 | CC(C)c1nc2ccc(NC(=O)c3ccc(F)cc3)cc2[nH]1 [37A] | 1000 to 2000 nM
31 | COC(=O)c1cccc(NC(=O)c2nsc3ccccc23)c1 [compound 33] | 200 to 500 nM
32 | CCCc1c(C)nc(Nc2nc(C)c3cc(C)cc(C)c3n2)[nH]c1=O [163A] | 1000 to 2000 nM
33 | Cc1cc([N+](=O)[O-])c(N)cc1N1CCN(c2ccccc2)CC1 [67A] | 1000 to 2000 nM
34 | COC(=O)C1=C(C)Nc2nc(-c3ccccc3)nn2C1c1cccnc1 (stereo not shown) [126A] | 1000 to 2000 nM
35 | Cc1cc2cc(Nc3nccc(C(F)(F)F)n3)ccc2[nH]1 [compound 84] | 200 to 500 nM
36 | COc1ccc(NC(=O)c2noc3c2CC(C)CC3)cc1 (stereo not shown) [30B] | 1000 to 2000 nM
37 | COc1ccnc(Sc2ccc(Cl)cc2)c1C#N [94A] | 1000 to 2000 nM
38 | COc1cccc2c1cc1c(O)nnc(C)n12 [185A] | > 2000 nM
39 | COc1ccc(NC(=O)c2ccc(C(F)(F)F)[nH]c2=O)cn1 [18A] | > 2000 nM
40 | Cc1ccc(-c2cc(-c3ccccc3)c3c(N)c(S(C)(=O)=O)sc3n2)cc1 [169A] | 1000 to 2000 nM
41 | Cc1cc(Cl)ccc1OCc1cn2cccnc2n1 [120A] | 1000 to 2000 nM
42 | CC(=O)c1ccc(C(=O)Nc2ccc(C)cc2Cl)s1 [21A] | 1000 to 2000 nM
43 | FC(F)(F)c1cccc(Nc2nc3ccccc3[nH]2)c1 [114A] | 1000 to 2000 nM

The remaining lines, values ahead:

Row | IC50 | SMILES
44 | 1000 to 2000 nM | CC1CN=C(N2CCN(c3nc4c(cc3C#N)CCC4)CC2)S1 (stereo not shown) [76A]
45 | > 2000 nM | Cc1cnn(Cc2ncc(-c3ccccc3Br)o2)c1 [77B]
46 | 500 to 1000 nM | COc1ccc(Nc2oc(-c3ccccc3C)nc2C#N)cc1 [78B]
47 | > 2000 nM | N#Cc1cc(NCCOCC(F)(F)F)nc2ccc([N+](=O)[O-])cc12 [154A]
48 | > 2000 nM | Cc1nc(-c2ccccc2F)sc1C(=O)NCc1ccccn1 [63A]
49 | 500 to 1000 nM | Cc1noc(C)c1C(=O)Nc1ccc(-c2ccccc2)cc1 [13B]
50 | 1000 to 2000 nM | CCn1c(-c2csc(N(C(C)=O)c3ccccc3)n2)nc2ccccc21 [39B]
51 | 1000 to 2000 nM | Cc1ccc(OCc2cc(=O)n3ccsc3n2)cc1C [113B]
52 | 1000 to 2000 nM | CCCNC(=O)c1cc2cc3ccc(C)cc3nc2o1 [184A]
53 | 500 to 1000 nM | c1cncc(-c2noc(-c3cc(-c4cccs4)[nH]n3)n2)c1 [compound 144]
54 | 1000 to 2000 nM | Cc1ccc(CS(=O)(=O)c2ccc(C(F)(F)F)cn2)cc1 [92A]
55 | 500 to 1000 nM | Cc1ccc2nc3c(c(N)c2c1)CCN3c1ccccc1 [124B]
56 | 1000 to 2000 nM | CCN1C(=O)C[C@@H]2[C@@H]1CCN2S(=O)(=O)Cc1ccc(C)cc1 [182A]
57 | 1000 to 2000 nM | COc1ccc(Nc2nn(-c3ccccc3)c3c2C(=O)CCC3)cc1 [177A]
58 | 1000 to 2000 nM | COc1ccc(OCCSc2nc3ccc(Br)cc3[nH]2)cc1 [112A]
59 | 500 to 1000 nM | O=c1[nH]nc(CNc2ccc(Cl)cc2Cl)c2ccccc12 [compound 156]
60 | 1000 to 2000 nM | Cn1c(SCc2ccccc2Cl)nnc1-c1csc(-c2cccnc2)n1 [53A]
61 | 1000 to 2000 nM | COc1ccccc1NC(=O)c1sc2nc(N3CCOCC3)c3c(c2c1N)CCCC3 [52A]
62 | > 2000 nM | C/C(=N\NC(=O)c1ccco1)c1ccc(Cl)c(Cl)c1 [43B]
63 | > 2000 nM | O=C(CNC1=NS(=O)(=O)c2ccccc21)OCc1cn(-c2ccccc2)nc1-c1ccccc1 [58B]
64 | 500 to 1000 nM | CCOC(=O)c1sc(NC(=O)c2ccc3ncsc3c2)cc1C [compound 39]
65 | > 2000 nM | Clc1ccc(-c2noc(-c3c[nH]nc3-c3ccccc3)n2)cc1 [86B]
66 | 1000 to 2000 nM | O=C(Nc1nnc(-c2ccc(F)cc2)[nH]1)c1ccc(S(=O)(=O)C(F)F)cc1 [27A]
67 | 1000 to 2000 nM | O=C(Cn1cnnn1)N(CCc1ccccc1)c1nc(-c2ccccc2)cs1 [41B]
68 | > 2000 nM | COc1ccc(Sc2nccc(N(C)C)c2C#N)cc1 [95A]
69 | 1000 to 2000 nM | Cc1cc(C)c2oc(-c3cccc(NC(=O)c4cccnc4)c3C)nc2c1 [15A]

Row | IC50 | SMILES
70 | 1000 to 2000 nM | O=C(Nc1ccc2ccccc2c1)c1cccc(NC(=O)C(F)(F)F)c1 [35A]
71 | 200 to 500 nM | Cc1c(-c2nc(-c3ccc(C(C)(C)C)cc3)no2)n(C)oc1=O [87B]
72 | < 200 nM | CC(C)(C)c1cc(C(=O)Nc2ccc3c(c2)CCN3S(C)(=O)=O)nc2ncnn12 [compound 48]
73 | 1000 to 2000 nM | Cc1ccc(N2CCN(C(=O)Nc3cc(F)cc(F)c3)CC2)nn1 [78A]
74 | 1000 to 2000 nM | N#Cc1c(NC(=O)c2cnn3cccnc23)sc2c1CCC2 [32B]
75 | 500 to 1000 nM | FC(F)(F)c1cnc(-c2cnc(-c3ccccn3)nc2)c(Cl)c1 [compound 87]
76 | 1000 to 2000 nM | Cc1cc(C)c2cc(C#N)c(Oc3cccnc3)nc2c1 [158A]
77 | 1000 to 2000 nM | Clc1ccccc1CNc1ccc(-c2ccccc2)nn1 [87A]
78 | 1000 to 2000 nM | N#Cc1ccc(CSc2ncc3ccccn23)cc1 [115A]
79 | > 2000 nM | c1ccc(-c2ccc(N3CCOCC3)s2)cc1 [100B]
80 | 500 to 1000 nM | Cc1csc(Nc2nc(N)c(C(=O)Nc3cc(Cl)ccc3F)o2)n1 [compound 37]
81 | 1000 to 2000 nM | Cc1cccnc1NC(=O)c1cc2c(ccc3ccccc32)[nH]1 [51A]
82 | 1000 to 2000 nM | CNS(=O)(=O)c1ccc2c(c1)CCN2C(=O)c1ccn(-c2cccc(F)c2)n1 [107A]
83 | 1000 to 2000 nM | CCCc1cc(C(=O)N2CCC(C3CCCCC3)C2)[nH]n1 (stereo not shown) [106A]
84 | < 200 nM | CCOC(=O)c1sc(NC(=O)c2cn3ccccc3n2)cc1C [compound 40]
85 | 1000 to 2000 nM | CCOC(=O)Nc1ccc(-n2ccc(C)n2)cc1 [57B]
86 | 500 to 1000 nM | Fc1ccccc1OCc1cnn(-c2ccccc2)c1 [54B]
87 | < 200 nM | COc1ccnc(N2CCN(c3ccc(Cl)cc3)CC2)c1C#N [compound 80]
88 | 200 to 500 nM | Cc1c(COc2ccccc2C#N)cccc1[N+](=O)[O-] [88B]
89 | > 2000 nM | CSc1ccc(-c2nnc(NC(=O)C(C)(C)C)s2)cc1 [99B]
90 | 1000 to 2000 nM | COc1ccc(N2CC(c3ccc(F)cc3)=CC2=O)cc1 [152A]
91 | 1000 to 2000 nM | CC(C)Nc1ccc(-n2nc3ccccc3[n+]2[O-])cc1 [176A]
92 | > 2000 nM | O=C1CSC(N2CCN(c3ccc(Cl)c(Cl)c3)CC2)=N1 [71A]
93 | > 2000 nM | N#Cc1ccc(OCc2ccc3nonc3c2)cc1 [174A]
94 | > 2000 nM | Cc1ccc2cc(NC(=O)c3cccc4c3OC(C)(C)C4)ccc2n1 [50A]
